What was measured:
Assay in all cases: biochemical
HCoV-229E 3CL^pro = target: T1, HCoV-229E 3CL^pro (Human coronavirus 229E, UniProt P0C6X1)
T1 construct: […]; made in house; host or cells: E. coli BL21 (DE3)

SARS-CoV-2 3CL^pro = target: T2, SARS-CoV-2 3CL^pro (Severe acute respiratory syndrome coronavirus 2, UniProt P0DTD1)
T2 construct: […]; made in house; host or cells: Escherichia coli

MERS-CoV 3CL^pro = MERS-CoV 3CL^pro (Middle East respiratory syndrome-related coronavirus, UniProt K9N7C7)
SARS-CoV 3CL^pro = SARS-CoV 3CL^pro (Severe acute respiratory syndrome coronavirus, UniProt P0C6X7)

T1 sequence (P0C6X1 2966-3267): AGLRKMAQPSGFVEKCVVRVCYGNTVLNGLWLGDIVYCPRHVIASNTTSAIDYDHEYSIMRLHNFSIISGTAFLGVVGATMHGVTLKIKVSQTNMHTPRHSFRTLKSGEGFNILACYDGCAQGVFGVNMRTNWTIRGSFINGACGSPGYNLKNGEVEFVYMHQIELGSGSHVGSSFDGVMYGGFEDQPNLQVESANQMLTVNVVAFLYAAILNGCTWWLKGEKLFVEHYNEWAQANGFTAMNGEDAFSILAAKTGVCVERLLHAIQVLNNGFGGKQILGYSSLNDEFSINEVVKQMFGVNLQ
Sequence of MERS-CoV 3CL^pro (K9N7C7 3248-3553): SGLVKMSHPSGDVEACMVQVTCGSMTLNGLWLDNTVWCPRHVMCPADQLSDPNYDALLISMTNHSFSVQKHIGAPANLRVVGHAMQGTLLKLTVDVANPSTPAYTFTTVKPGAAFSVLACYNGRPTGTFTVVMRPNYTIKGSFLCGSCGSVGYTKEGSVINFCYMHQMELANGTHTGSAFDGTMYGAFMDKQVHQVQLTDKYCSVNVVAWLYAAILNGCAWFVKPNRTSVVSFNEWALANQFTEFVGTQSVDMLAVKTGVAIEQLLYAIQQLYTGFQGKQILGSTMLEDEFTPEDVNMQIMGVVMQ

SMILES: CC1(C)C[C@@H](CN(NC(=O)[C@@H]2[C@H]3CCC[C@H]3CN2C(=O)[C@@H](NC(=O)[C@@H](F)Cl)C(C)(C)C)C(=O)[C@H](F)Cl)C(=O)N1 [Example 15, (2S)-N-[(1S)-1-[(3S,3aS,6aR)-3-[[[(2R)-2-chloro-2-fluoro-acetyl]-[[(3S)-5,5-dimethyl-2-oxo-pyrrolidin-3-yl]methyl]amino]carbamoyl]-3,3a,4,5,6,6a-hexahydro-1H-cyclopenta[c]pyrrole-2-carbonyl]-2,2-dimethyl-propyl]-2-chloro-2-fluoro-acetamide]
- IC50 (HCoV-229E 3CL^pro): 589 nM
- IC50 (SARS-CoV-2 3CL^pro): 11 nM
- IC50 (MERS-CoV 3CL^pro): 488 nM
- IC50 (SARS-CoV 3CL^pro): 12 nM

SMILES: CCC(CC)[C@H](NC(=O)C(F)F)C(=O)N1C[C@@H]2CCC[C@@H]2[C@H]1C(=O)NN(C[C@H]1CC(C)(C)NC1=O)C(=O)[C@H](F)Cl [Example 8]
- IC50 (HCoV-229E 3CL^pro): 6710 nM
- IC50 (SARS-CoV-2 3CL^pro): 129 nM
- IC50 (MERS-CoV 3CL^pro): 3020 nM
- IC50 (SARS-CoV 3CL^pro): 256 nM

SMILES: C[C@H]1C[C@@H](CN(NC(=O)[C@@H]2[C@H]3CCC[C@H]3CN2C(=O)[C@@H](NC(=O)[C@@H]2CC2(F)F)C(C)(C)C)C(=O)[C@H](F)Cl)C(=O)N1 [Example 27, (1S)-N-[(1S)-1-[(3S,3aS,6aR)-3-[[[(2R)-2-chloro-2-fluoro-acetyl]-[[(3S,5S)-5-methyl-2-oxo-pyrrolidin-3-yl]methyl]amino]carbamoyl]-3,3a,4,5,6,6a-hexahydro-1H-cyclopenta[c]pyrrole-2-carbonyl]-2,2-dimethyl-propyl]-2,2-difluoro-cyclopropanecarboxamide]
- IC50 (HCoV-229E 3CL^pro): 30 nM
- IC50 (SARS-CoV-2 3CL^pro): 6 nM
- IC50 (MERS-CoV 3CL^pro): 63 nM
- IC50 (SARS-CoV 3CL^pro): 10 nM

SMILES: CC1(C)C[C@@H](CN(NC(=O)[C@@H]2[C@@H]3[C@H](CN2C(=O)[C@@H](NC(=O)[C@@H]2CC2(F)F)C(C)(C)C)C3(C)C)C(=O)[C@H](F)Cl)C(=O)N1 [Example 21, (1S)-N-[(1S)-1-[(1R,2S,5S)-2-[[[(2R)-2-chloro-2-fluoro-acetyl]-[[(3S)-5,5-dimethyl-2-oxo-pyrrolidin-3-yl]methyl]amino]carbamoyl]-6,6-dimethyl-3-azabicyclo[3.1.0]hexane-3-carbonyl]-2,2-dimethyl-propyl]-2,2-difluoro-cyclopropanecarboxamide]
- IC50 (HCoV-229E 3CL^pro): 778 nM
- IC50 (SARS-CoV-2 3CL^pro): 14 nM
- IC50 (MERS-CoV 3CL^pro): 402 nM
- IC50 (SARS-CoV 3CL^pro): 22 nM

SMILES: CC1(C)CC(CN(NC(=O)[C@@H]2[C@H]3CCC[C@H]3CN2C(=O)[C@@H](NC(=O)[C@@H]2CC2(F)F)C(C)(C)C)C(=O)[C@H](F)Cl)C(=O)N1 (mixture of isomers) [Example 3, (1S)—N-[(1S)-1-[(3S,3aS,6aR)-3-[[[(2R)-2-chloro-2-fluoro-acetyl]-[rac-(5,5-dimethyl-2-oxo-pyrrolidin-3-yl)methyl]amino]carbamoyl]-3,3a,4,5,6,6a-hexahydro-1H-cyclopenta[c]pyrrole-2-carbonyl]-2,2-dimethyl-propyl]-2,2-difluoro-cyclopropanecarboxamide]
- IC50 (HCoV-229E 3CL^pro): 2520 nM
- IC50 (SARS-CoV-2 3CL^pro): 23 nM
- IC50 (MERS-CoV 3CL^pro): 850 nM
- IC50 (SARS-CoV 3CL^pro): 28 nM

SMILES: CC1(C)C[C@H](CN(NC(=O)[C@@H]2[C@H]3CCC[C@H]3CN2C(=O)[C@@H](NC(=O)[C@@H]2CC2(F)F)C(C)(C)C)C(=O)[C@H](F)Cl)C(=O)N1 [Example 5, (1S)-N-[(1S)-1-[(3S,3aS,6aR)-3-[[[(2R)-2-chloro-2-fluoro-acetyl]-[[(3R)-5,5-dimethyl-2-oxo-pyrrolidin-3-yl]methyl]amino]carbamoyl]-3,3a,4,5,6,6a-hexahydro-1H-cyclopenta[c]pyrrole-2-carbonyl]-2,2-dimethyl-propyl]-2,2-difluoro-cyclopropanecarboxamide]
- IC50 (HCoV-229E 3CL^pro): 4100 nM
- IC50 (SARS-CoV-2 3CL^pro): 81 nM
- IC50 (MERS-CoV 3CL^pro): 1240 nM
- IC50 (SARS-CoV 3CL^pro): 137 nM

SMILES: CC1(C)C[C@@H](CN(NC(=O)[C@@H]2[C@H]3CCC[C@H]3CN2C(=O)[C@@H](NC(=O)[C@@H](F)Cl)C(C)(C)C)C(=O)[C@@H](F)Cl)C(=O)N1 [Example 17]
- IC50 (HCoV-229E 3CL^pro): 4260 nM
- IC50 (SARS-CoV-2 3CL^pro): 16 nM
- IC50 (MERS-CoV 3CL^pro): 1870 nM
- IC50 (SARS-CoV 3CL^pro): 19 nM

SMILES: CCC(CC)[C@H](NC(=O)C(F)F)C(=O)N1C[C@@H]2CCC[C@@H]2[C@H]1C(=O)NN(C[C@@H]1CC(C)(C)NC1=O)C(=O)[C@@H](F)Cl [Example 12, N-[(1S)-1-[(3S,3aS,6aR)-3-[[[(2S)-2-chloro-2-fluoro-acetyl]-[[(3S)-5,5-dimethyl-2-oxo-pyrrolidin-3-yl]methyl]amino]carbamoyl]-3,3a,4,5,6,6a-hexahydro-1H-cyclopenta[c]pyrrole-2-carbonyl]-2-ethyl-butyl]-2,2-difluoro-acetamide]
- IC50 (HCoV-229E 3CL^pro): 1240 nM
- IC50 (SARS-CoV-2 3CL^pro): 9 nM
- IC50 (MERS-CoV 3CL^pro): 555 nM
- IC50 (SARS-CoV 3CL^pro): 13 nM

SMILES: CC(C)(C)[C@H](NC(=O)[C@@H]1CC1(F)F)C(=O)N1C[C@@H]2CCC[C@@H]2[C@H]1C(=O)NN(C[C@H]1C(=O)N[C@H]2C[C@H]21)C(=O)[C@@H](F)Cl [Example 39, (1S)-N-[(1S)-1-[(3S,3aS,6aR)-3-[[[(2S)-2-chloro-2-fluoro-acetyl]-[[(1S,4S,5S)-3-oxo-2-azabicyclo[3.1.0]hexan-4-yl]methyl]amino]carbamoyl]-3,3a,4,5,6,6a-hexahydro-1H-cyclopenta[c]pyrrole-2-carbonyl]-2,2-dimethyl-propyl]-2,2-difluoro-cyclopropanecarboxamide]
- IC50 (HCoV-229E 3CL^pro): 207 nM
- IC50 (SARS-CoV-2 3CL^pro): 29 nM
- IC50 (MERS-CoV 3CL^pro): 289 nM
- IC50 (SARS-CoV 3CL^pro): 34 nM

SMILES: CC1(C)C[C@H](CN(NC(=O)[C@@H]2[C@H]3CCC[C@H]3CN2C(=O)[C@@H](NC(=O)[C@@H]2CC2(F)F)C(C)(C)C)C(=O)[C@@H](F)Cl)C(=O)N1 [Example 2b, (1S)—N-[(1S)-1-[(3S,3aS,6aR)-3-[[[(2S)-2-chloro-2-fluoro-acetyl]-[[(3R)-5,5-dimethyl-2-oxo-pyrrolidin-3-yl]methyl]amino]carbamoyl]-3,3a,4,5,6,6a-hexahydro-1H-cyclopenta[c]pyrrole-2-carbonyl]-2,2-dimethyl-propyl]-2,2-difluoro-cyclopropanecarboxamide]
- IC50 (HCoV-229E 3CL^pro): > 10000 nM
- IC50 (SARS-CoV-2 3CL^pro): 918 nM
- IC50 (MERS-CoV 3CL^pro): > 10000 nM
- IC50 (SARS-CoV 3CL^pro): 1720 nM

SMILES: CC[C@H](C)[C@H](NC(=O)C1(F)CC1)C(=O)N1C[C@H]2[C@@H]([C@H]1C(=O)NN(C[C@@H]1CC(C)(C)NC1=O)C(=O)[C@H](F)Cl)C2(C)C [Example 1a, N-[(1S,2S)-1-[(1R,2S,5S)-2-[[[(2R)-2-chloro-2-fluoro-acetyl]-[[(3S)-5,5-dimethyl-2-oxo-pyrrolidin-3-yl]methyl]amino]carbamoyl]-6,6-dimethyl-3-azabicyclo[3.1.0]hexane-3-carbonyl]-2-methyl-butyl]-1-fluoro-cyclopropanecarboxamide]
- IC50 (HCoV-229E 3CL^pro): 421 nM
- IC50 (SARS-CoV-2 3CL^pro): 48 nM
- IC50 (MERS-CoV 3CL^pro): 635 nM
- IC50 (SARS-CoV 3CL^pro): 84 nM

SMILES: CCC(CC)[C@H](NC(=O)C(F)F)C(=O)N1C[C@@H]2CCC[C@@H]2[C@H]1C(=O)NN(C[C@@H]1CC(C)(C)NC1=O)C(=O)[C@H](F)Cl [Example 7, N-[(1S)-1-[(3S,3aS,6aR)-3-[[[(2R)-2-chloro-2-fluoro-acetyl]-[[(3S)-5,5-dimethyl-2-oxo-pyrrolidin-3-yl]methyl]amino]carbamoyl]-3,3a,4,5,6,6a-hexahydro-1H-cyclopenta[c]pyrrole-2-carbonyl]-2-ethyl-butyl]-2,2-difluoro-acetamide]
- IC50 (HCoV-229E 3CL^pro): 130 nM
- IC50 (SARS-CoV-2 3CL^pro): 7 nM
- IC50 (MERS-CoV 3CL^pro): 162 nM
- IC50 (SARS-CoV 3CL^pro): 9 nM

SMILES: CC(C)(C)[C@H](NC(=O)[C@@H]1CC1(F)F)C(=O)N1C[C@@H]2CCC[C@@H]2[C@H]1C(=O)NN(C[C@@H]1CC2(CC2)NC1=O)C(=O)[C@H](F)Cl [Example 25]
- IC50 (HCoV-229E 3CL^pro): 40 nM
- IC50 (SARS-CoV-2 3CL^pro): 12 nM
- IC50 (MERS-CoV 3CL^pro): 62 nM
- IC50 (SARS-CoV 3CL^pro): 14 nM

SMILES: CC[C@H](C)[C@H](NC(=O)C1(F)CC1)C(=O)N1C[C@H]2[C@@H]([C@H]1C(=O)NN(C[C@H]1CC(C)(C)NC1=O)C(=O)[C@@H](F)Cl)C2(C)C [Example 19, N-[(1S,2S)-1-[(1R,2S,5S)-2-[[[(2S)-2-chloro-2-fluoro-acetyl]-[[(3R)-5,5-dimethyl-2-oxo-pyrrolidin-3-yl]methyl]amino]carbamoyl]-6,6-dimethyl-3-azabicyclo[3.1.0]hexane-3-carbonyl]-2-methyl-butyl]-1-fluoro-cyclopropanecarboxamide]
- IC50 (HCoV-229E 3CL^pro): 834 nM
- IC50 (SARS-CoV-2 3CL^pro): 19 nM
- IC50 (MERS-CoV 3CL^pro): 553 nM
- IC50 (SARS-CoV 3CL^pro): 32 nM

SMILES: C[C@H]1C[C@@H](CN(NC(=O)[C@@H]2[C@@H]3[C@H](CN2C(=O)[C@@H](NC(=O)[C@@H]2CC2(F)F)C(C)(C)C)C3(C)C)C(=O)[C@H](F)Cl)C(=O)N1 [Example 33, (1S)-N-[(1S)-1-[(1R,2S,5S)-2-[[[(2R)-2-chloro-2-fluoro-acetyl]-[[(3S,5S)-5-methyl-2-oxo-pyrrolidin-3-yl]methyl]amino]carbamoyl]-6,6-dimethyl-3-azabicyclo[3.1.0]hexane-3-carbonyl]-2,2-dimethyl-propyl]-2,2-difluoro-cyclopropanecarboxamide]
- IC50 (HCoV-229E 3CL^pro): 26 nM
- IC50 (SARS-CoV-2 3CL^pro): 6 nM
- IC50 (MERS-CoV 3CL^pro): 72 nM
- IC50 (SARS-CoV 3CL^pro): 13 nM

SMILES: CC1(C)C[C@H](CN(NC(=O)[C@@H]2[C@H]3CCC[C@H]3CN2C(=O)[C@@H](NC(=O)C(F)F)C(C)(C)C)C(=O)[C@H](F)Cl)C(=O)N1 [Example 10, N-[(1S)-1-[(3S,3aS,6aR)-3-[[[(2R)-2-chloro-2-fluoro-acetyl]-[[(3R)-5,5-dimethyl-2-oxo-pyrrolidin-3-yl]methyl]amino]carbamoyl]-3,3a,4,5,6,6a-hexahydro-1H-cyclopenta[c]pyrrole-2-carbonyl]-2,2-dimethyl-propyl]-2,2-difluoro-acetamide]
- IC50 (HCoV-229E 3CL^pro): 3040 nM
- IC50 (SARS-CoV-2 3CL^pro): 31 nM
- IC50 (MERS-CoV 3CL^pro): 794 nM
- IC50 (SARS-CoV 3CL^pro): 53 nM

Reference: US20260125421A1, “ANTIVIRAL COMPOUNDS” (Hoffmann-La Roche Inc., priority 2022, published 2026)
